From PMC7972453, “The allosteric modulation of complement C5 by knob domain peptides” (eLife, 2021) come the findings set out here.

Experiment [1] concerns classical pathway mediated C9 deposition. The experiment is described as follows: Inhibition of classical pathway mediated C9 deposition (ELISA). The class given is biochemical, human. Particulars: CP C9 deposition; 1% serum; n=3; ND* = Not detected. How it is done: For the C3 and C9 ELISAs, microtiter plates (MaxiSorp; Nunc) were incubated overnight at 4°C with 50 µL of a solution of in 75 mM sodium carbonate (pH 9.6) containing either 2.5 µg/mL aggregated human IgG (Sigma-Aldrich, Gillingham, UK) for CP or 20 µg/mL zymosan (Sigma-Aldrich, Gillingham, UK) for AP. As a negative control, wells were coated with 1% (w/v) bovine serum albumin (BSA)/PBS. Microtiter plates were washed four times with 250 µL of wash buffer (50 mM Tris-HCl), 150 mM NaCl and 0.1% Tween 20 (pH 8) between each step of the procedure. Wells were blocked using 250 µL of 1% (w/v) BSA/PBS for 2 hr at room temperature. […] Complement activation was assessed through detection of deposited complement activation factors using specific antibodies against C3b (rat anti-human C3d HM2198, Hycult, Uden, The Netherlands) and C9 (goat anti-human C9, A226, Complement Technologies Tyler, TX) at a 1:1000 dilution. Bound primary antibodies were detected with […]-conjugated goat anti-rat (ab97057, Abcam, Cambridge, UK) or rabbit anti-goat (P0449, Agilent Dako, Santa Clara, CA) secondary antibodies at a 1:1000 dilution. Bound HRP-conjugated antibodies were detected using TMB One solution (Eco-TEK – manufactured by Bio-TEK, Winooski, VT) with absorbance measured at 450 nm. […]
A general note: In an ELISA, binding on a coated surface is turned into a signal by an enzyme label.

In experiment [2] the test system is rabbit erythrocytes (alternative pathway haemolysis). Kind of experiment: Inhibition of alternative pathway haemolysis. The class given is cell-based, rabbit erythrocytes; normal human serum. The conditions noted are these: 4.5% serum. As to the method:
GVB^++ or Mg EGTA buffers, which had been supplemented with 2.5% glucose (w/v), were used for the CP and AP assays, respectively. For the AP, 150 µL of rabbit erythrocytes (TCS Biosciences, Botolph Claydon, UK) were washed twice, by addition of 1 mL of buffer and centrifugation at 800 ×g for 1 min, and finally resuspended in 500 µL of buffer. For the CP, 150 µL sheep erythrocytes (TCS Biosciences, Botolph Claydon, UK) were washed twice with 1 mL of buffer and sensitised with a 1/1000 dilution of rabbit anti-sheep red blood cell stroma antibody (S1389, Sigma Aldrich, Gillingham, UK). After a 30°C/30 min incubation, with shaking, the cells were rewashed and resuspended with 500 µL of buffer. Serial dilutions of peptide were prepared in the respective buffers and normal human serum was added at 1% for the CP and 4.5% for the AP (corresponding to CH50 of the serum). Also, 90 µL of peptide–serum mixtures were plated into a V-bottom 96-well microtiter plate (Corning) and 10 µL of erythrocytes were added. Plates were incubated for 30 min at 37°C, with shaking. Finally, 50 µL of buffer was added, the plates centrifuged at 800 ×g, and 80 µL of supernatant was transferred to an ELISA plate (Nunc) and absorbance measured at 405 nm.
Table 1.8. Inhibition of alternative pathway haemolysis.

In experiment [3] the target is T1, human C5 (Homo sapiens, UniProt P01031).
T1 construct: tissue TCS Biosciences (serum); host or cells: human serum
T1 sequence (P01031 678-1676 limits assumed): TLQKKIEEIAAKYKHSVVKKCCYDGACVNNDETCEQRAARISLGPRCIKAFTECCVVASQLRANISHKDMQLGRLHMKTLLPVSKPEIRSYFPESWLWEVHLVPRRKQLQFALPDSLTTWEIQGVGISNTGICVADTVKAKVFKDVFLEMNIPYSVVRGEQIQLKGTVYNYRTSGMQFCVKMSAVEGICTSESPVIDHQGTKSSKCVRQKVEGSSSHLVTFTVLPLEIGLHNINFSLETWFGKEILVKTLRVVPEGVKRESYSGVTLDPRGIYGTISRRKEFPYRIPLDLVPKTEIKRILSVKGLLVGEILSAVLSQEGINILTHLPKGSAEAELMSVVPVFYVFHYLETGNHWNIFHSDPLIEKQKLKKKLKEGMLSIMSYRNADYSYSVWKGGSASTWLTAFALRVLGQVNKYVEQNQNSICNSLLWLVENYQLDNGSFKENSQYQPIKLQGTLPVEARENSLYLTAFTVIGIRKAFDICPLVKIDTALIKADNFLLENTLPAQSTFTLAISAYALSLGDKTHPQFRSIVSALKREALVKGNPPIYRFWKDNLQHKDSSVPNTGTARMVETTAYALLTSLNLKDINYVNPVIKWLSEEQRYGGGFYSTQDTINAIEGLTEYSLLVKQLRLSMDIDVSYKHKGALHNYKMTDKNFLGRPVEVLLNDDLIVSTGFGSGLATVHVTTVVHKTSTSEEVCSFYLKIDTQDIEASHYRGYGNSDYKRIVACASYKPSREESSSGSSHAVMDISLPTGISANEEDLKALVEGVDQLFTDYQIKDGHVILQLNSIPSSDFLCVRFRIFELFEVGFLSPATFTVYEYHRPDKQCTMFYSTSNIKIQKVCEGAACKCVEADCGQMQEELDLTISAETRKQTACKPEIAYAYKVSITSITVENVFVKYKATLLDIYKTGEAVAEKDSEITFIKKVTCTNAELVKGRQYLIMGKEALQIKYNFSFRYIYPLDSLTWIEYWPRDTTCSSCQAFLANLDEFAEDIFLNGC
T1 sequence (P01031 19-673 limits assumed): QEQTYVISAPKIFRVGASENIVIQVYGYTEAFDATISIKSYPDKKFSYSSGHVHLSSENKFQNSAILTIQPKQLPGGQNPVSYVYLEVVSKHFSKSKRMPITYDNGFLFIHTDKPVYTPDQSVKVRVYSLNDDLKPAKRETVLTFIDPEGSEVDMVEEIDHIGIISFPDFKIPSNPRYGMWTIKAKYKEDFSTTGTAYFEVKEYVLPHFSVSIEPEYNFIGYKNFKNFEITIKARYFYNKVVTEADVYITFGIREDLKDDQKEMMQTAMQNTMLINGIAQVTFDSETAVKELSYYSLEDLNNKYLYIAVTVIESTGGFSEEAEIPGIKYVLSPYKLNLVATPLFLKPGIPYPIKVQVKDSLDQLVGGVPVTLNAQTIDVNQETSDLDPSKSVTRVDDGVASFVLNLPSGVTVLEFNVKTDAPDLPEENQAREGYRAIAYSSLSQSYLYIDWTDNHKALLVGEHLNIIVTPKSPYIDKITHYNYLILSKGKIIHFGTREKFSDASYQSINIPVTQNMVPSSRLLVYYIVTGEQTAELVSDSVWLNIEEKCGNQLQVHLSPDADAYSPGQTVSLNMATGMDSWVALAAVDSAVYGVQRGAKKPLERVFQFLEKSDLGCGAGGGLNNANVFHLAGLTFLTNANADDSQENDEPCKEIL
The experiment is described as follows: SPR multi-cycle kinetics, binding to C5. How it is done:
Kinetics were measured using a Biacore 8K (GE Healthcare, Amersham, UK) with a CM5 chip, which was prepared as follows: 1-ethyl-3-(−3-dimethylaminopropyl) carbodiimide hydrochloride (EDC)/N-hydroxysuccinimide (NHS) was mixed at 1:1 ratio (flow rate, 10 µL/min; contact time, 30 s), and human C5 at 1 µg/mL in pH 4.5 sodium acetate buffer was injected over flow cell one only (flow rate, 10 µL/min; contact time, 60 s). Final immobilisation levels in the range of 2000–3000 RUs were obtained to yield theoretical Rmax values of ~50–60 RU. […] After each injection, the surface was regenerated with two sequential injections of 2 M MgCl2 (flow rate, 30 µL/min; contact time, 30 s). Binding to the reference surface was subtracted, and the data were fitted to a single-site binding model using Biacore evaluation software.
Table 2.6. Validation of molecular interactions by peptide mutagenesis analysis.
Summary of SPR multi-cycle kinetics

For experiment [4], the target named is T1, human C5. The experiment is described as follows: SPR cross blocking. Particulars: HBS-EP, qualitative. The class given is binding. As to the method: To test for cross blocking, arising from overlapping epitopes, or cooperativity between knob domains, we performed a surface plasmon resonance (SPR) cross blocking experiment, where, using a Biacore 8K, we saturated a C5-coated sensor chip with two 20 µM injections of knob domain peptide before injecting a different peptide at 20 µM to assess its capacity to bind. This provides a qualitative measure of cross blocking, whereby an increase in response units (RUs) indicates ternary complex formation, stoichiometries, or kinetics cannot be reliably derived with concurrent dissociation of both peptides (Figure 2).
On a Biacore 8K (GE Healthcare, Amersham, UK), human C5 was amine coupled to a CM5 chip using the same protocol as for C5b. A final immobilisation level of approximately 1000–2000 RUs was obtained. For cross blocking, the surface was saturated with two sequential injections of a 20 µM knob domain solution in HBS-EP buffer (GE Healthcare, Amersham, UK) using a flow rate of 30 µL/min and contact time of 300 s. This was immediately followed with an injection of a second knob domain peptide, again at 20 µM in HBS-EP, with a flow rate of 30 µL/min and a contact time of 270 s, and the dissociation phase was measured for 600 s. […]

Entries after “also recorded” stand apart in the source; their conditions may differ. Like-named read-outs stand apart in the source and are kept apart here. Bridges are numbered along the chain shown (N, C = ends). Where no end group is shown, it is not given here.

As to “SVCPDGFDWGYGCAAGSSRFCTRHDWCCYDERADSHTYGFCTGNRVENLYFQ (disulfide 3-28, 13-21, 27-41) [K8]”, the “Average Emax” value in experiment [1] amounted to 63.4%. Also, the “inhibition of AP haemolysis (in words)” value in experiment [2] is reported as “did not show efficacy in the AP haemolysis assay, below 10 µM; also recorded: did not show activity in the AP assay below 10 µM”. For the same sequence, the mean stoich. ratio at human C5 [3] (Biacore 8K, mean of n=3) stood at 0.25. In addition, the koff (as a rule, the first-order rate constant of dissociation) on human C5 [3] (pH 7.4, read-out: mean koff, Biacore 8K, HBS-EP pH 7.4, mean of n=3) is 0.000385 s⁻¹; at human C5 [3] (replicate n=1), 0.000372 s⁻¹; at human C5 [3] (replicate n=2), 0.000422 s⁻¹; at human C5 [3] (replicate n=3), 0.000361 s⁻¹. Also, the kon – broadly, the second-order rate constant of association – at human C5 [3] (pH 7.4, read-out: mean kon, Biacore 8K, CM5 chip, HBS-EP pH 7.4, mean of n=3) was 70500 M⁻¹ s⁻¹; at human C5 [3] (replicate n=1), 71000 M⁻¹ s⁻¹; at human C5 [3] (replicate n=2), 72600 M⁻¹ s⁻¹; on human C5 [3] (replicate n=3) it was 67800 M⁻¹ s⁻¹. For the same sequence, the stoich. ratio on human C5 [3] (replicate n=1) is 0.28; at human C5 [3] (replicate n=2), 0.23; at human C5 [3] (replicate n=3), 0.24. The “binding to C5 saturated with K57” value on human C5 [4] (two 20 µM injections of K57, then 20 µM second peptide) is “can bind, albeit at a lower level; also recorded: could still partially bind”. Also, at human C5 [4] (two 20 µM injections of K92, then 20 µM second peptide), the “binding to C5 saturated with K92” value is “can bind, albeit at a lower level; also recorded: still able to bind, albeit to a lesser degree”.
